The nature of this data set: Storage stability / shelf life of F-18 labeling precursors. In kind it is physicochemical. The settings on record: for stability to storage compared to the tosylate and 4-bromo-tosylate derivatives: comparison in the FIG. 1C legend; for stability on storage: stored below 0 C.

SMILES strings stand for the structures.

In the case of `CC(=O)OCC1OC(OC2C(COC(C)=O)OC(OC3C(COC(C)=O)OC(OCCCn4cc(CCCBr)nn4)C(OC(C)=O)C3OC(C)=O)C(OC(C)=O)C2OC(C)=O)C(OC(C)=O)C(OC(C)=O)C1OC(C)=O` (stereo not shown) [3-bromopropyl-precursor, 2-(acetoxymethyl)-6-((4,5-diacetoxy-2-(acetoxymethyl)-6-((4,5-diacetoxy-2-(acetoxymethyl)-6-(3-(4-(3-bromopropyl)-1H-1,2,3-triazol-1-yl)propoxy)tetrahydro-2H-pyran-3-yl)oxy)tetrahydro-2H-pyran-3-yl)oxy)tetrahydro-2H-pyran-3,4,5-triyl triacetate], the “stability to storage compared to the tosylate and 4-bromo-tosylate derivatives” value was “more statable to storage”; the stability on storage entry is recorded as “stable”.

In the case of `CC(=O)OCC1OC(OC2C(COC(C)=O)OC(OC3C(COC(C)=O)OC(OCCCn4cc(CCCI)nn4)C(OC(C)=O)C3OC(C)=O)C(OC(C)=O)C2OC(C)=O)C(OC(C)=O)C(OC(C)=O)C1OC(C)=O` (stereo not shown) [3-iodopropyl-precursor, 2-(acetoxymethyl)-6-((4,5-diacetoxy-2-(acetoxymethyl)-6-((4,5-diacetoxy-2-(acetoxymethyl)-6-(3-(4-(3-iodopropyl)-1H-1,2,3-triazol-1-yl)propoxy)tetrahydro-2H-pyran-3-yl)oxy)tetrahydro-2H-pyran-3-yl)oxy)tetrahydro-2H-pyran-3,4,5-triyl triacetate], the “stability to storage compared to the tosylate and 4-bromo-tosylate derivatives” value was “more statable to storage”; the stability on storage entry is “stable”.
